# According to patent US10278941B2, “Use of 2,5-dihydroxybenzene compounds and derivatives for the treatment of glioma” (AmDerma Pharmaceuticals, LLC, priority 2006, dated 2019):
# Assays:
# rat glioma C6 cells = assay: Rat glioma C6 cell proliferation, crystal violet staining; format: cell-based; details: 48 h
# Protocol: The cell line used was rat glioma C6 cells. The cells were cultured as previously described (Cuevas P et al. Neurol Res, 2005). The cells were cultured as adherent cells in Dulbecco's modified Eagle's medium, supplemented with 7.5% (v/v) of fetal bovine serum, 10 μg/ml of streptomycin and 10 units/ml of penicillin. The tumor cells were seeded in 24-well plates at a density of 10,000 cells/well, and were incubated at 37° C. in a humidified chamber with 5% CO2. Once adhered, the cells were treated or not (controls) with 2,5-dihydroxybenzoate at 100, 200, 500 or 1000 μM and they were allowed to proliferate for 48 h. After this time the glioma cell proliferation was evaluated by means of staining the fixed cells with crystal violet. The number of cells is proportional to the amount of retained dye, which was spectrophotometrically determined by measuring the absorbance at 595 nm once the dye was extracted from the cells.
# (§1) The cell line used was the C6 cell line and the experiment was carried out as described in Example 2. Once adhered, the cells were treated or not (controls) with increasing concentrations of 2,5-DHC (10, 25, 50 and 100 μM) and they were allowed to proliferate for 48 h. After this time the glioma cell proliferation was evaluated by means of staining the fixed cells with crystal violet. The number of cells is proportional to the amount of retained dye, which was determined spectrophotometrically by measuring absorbance at 595 nm once the dye was extracted from the cells.
# as §1, with “examples 2 and 3.” for “Example 2.”, “(5A-2HBS) (500 μM) or (2A-5HBS) (500” for “increasing concentrations of 2,5-DHC (10, 25, 50 and 100”, “measuring the” for “measuring”
# bFGF-induced fibrosis = assay: bFGF-induced fibrosis, subcutaneous gelatin sponge implant; format: in vivo, Sprague-Dawley rats; details: sponge with bFGF plus compound 100 μM, 7 days
# Protocol: Sterile gelatin sponges (1 mm^3; Curaspon Dental, Clinimed Holding, Zwanenburg, The Netherlands) were subcutaneously implanted in the dorsal region of the neck in Sprague-Dawley rats after the induction of intraperitoneal anesthesia. The animals were split into two groups: group A, the sponges were moistened with 200 μl of saline solution which contained 25 μg/ml of heparin and 10 μg/ml of basic FGF (bFGF); group B, the sponges were moistened in the same solution as in group A, but which solution further contained 2,5-dihydroxybenzoate (100 μM). After 7 days, the sponges and the surrounding subcutaneous fat were removed and histologically analyzed.
# [1] = target: T1, Fibroblast Growth Factor-1 (FGF-1) (Homo sapiens, UniProt P05230); assay: Crystal diffraction of FGF-1:compound complexes; format: binding; details: acetoxyl groups conserved when bound
# T1 sequence (P05230 whole entry, species assumed): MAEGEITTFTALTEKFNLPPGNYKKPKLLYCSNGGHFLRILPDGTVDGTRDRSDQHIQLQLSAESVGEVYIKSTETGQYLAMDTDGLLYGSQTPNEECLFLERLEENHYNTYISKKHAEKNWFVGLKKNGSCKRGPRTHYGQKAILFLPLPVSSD
# Protocol: Based on the crystal diffraction of the FGF-1:2-acetoxy-5-hydroxybenzene sulfonic acid, FGF-1:5-acetoxy-2-hydroxybenzene sulfonic acid and FGF-1:2,5-diacetoxybenzene sulfonic acid complexes, the structures of the complexes were calculated and represented. FIGS. 13, 14 and 15, which show the surface of the dyed protein according to its electrostatic potential (light grey, negative charge; dark grey, positive charge; white, regions with no charge), show the manner in which 2-acetoxy-5-hydroxybenzene sulfonic acid, 5-acetoxy-2-hydroxybenzene sulfonic acid and 2,5-diacetoxybenzene sulfonic acid interact, respectively, with FGF-1.
# [2] = tested on: subcutaneous gliomas (rat glioma C6 cells); assay: Progression of established subcutaneous C6 gliomas in rats; format: in vivo; details: for average size (volume) of the subcutaneous gliomas: vs carrier
# Protocol: Rat C6 glioma cells were cultured as previously described (Cuevas P et al. Neurol Res, 2005). The C6 cells cultured to confluence in 75 cm^2 flasks were removed and implanted under the abdominal skin in anesthetized rats. The existence of a tumor in the implantation area was observed five days after the implantation of the tumor cells. Only the rats in which the existence of a tumor was observed were randomly assigned to be treated with daily intraperitoneal injections of 2,5-dihydroxybenzene sulfonate (DHBS; 100 mg/kg/day), 2,5-diacetoxybenzene sulfonate (DABS; 100 mg/kg/day) or the carrier (0.9% NaCl). After 10 days of treatment, the subcutaneous gliomas were removed and their volume was calculated according to the formula V=4/3π·(L/2)·(A/2)^2 (in mm^3) where L is the larger diameter and A is the smaller diameter, both expressed in mm.
# Tumor cells elude the programmed cell death process or apoptosis that normal cells experience. Apoptosis induction in tumor cells is one way to confront the development of a tumor. To evaluate the effect of potassium 2,5-dihydroxybenzene sulfonate […] on tumor cell apoptosis, 6 μm thick sections of the subcutaneous gliomas described in example 4 were made. The sections were stained with hematoxylin and eosin and observed at a magnification of 313 times using immersion oil. In these conditions, cell apoptosis is shown by the existence of apoptotic bodies appearing as strongly chromogenic granules in the cell nucleus which is frequently fragmented.
# [3] = tested on: human prostate cancer PC-3 cells; assay: Human tumor cell proliferation, XTT viability method, PC-3; format: cell-based; details: 1-200 μM, 96 h
# Protocol: (§2) The cell lines used were the human prostate cancer PC-3 cells and human lung cancer A549 cells. 2000 cells were seeded per well in 96-well plates and they were allowed to adhere overnight. Then the cells were treated or not (controls) with potassium 2,5-diacetoxybenzene sulfonate (DABS) (1-200 μM) and they were allowed to proliferate for 96 h. After this time, the PC-3 and A549 cell proliferation was evaluated by determining the final number of cells by means of the viability method of yellow tetrazolium salt (XTT). The data were expressed as a percentage of the control (without treatment).
# [4] = tested on: human lung cancer A549 cells; assay: Human tumor cell proliferation, XTT viability method, A549; format: cell-based; details: 1-200 μM, 96 h
# Protocol: as §2
# [5] = tested on: human prostate cancer PC-3 cells; assay: Subcutaneous PC-3 tumor progression in athymic mice; format: in vivo, athymic mice (Nu/Nu); details: 100 mg/kg daily i.p., 15 days
# Protocol: 5×10^6 human prostate cancer PC-3 cells were subcutaneously injected in male athymic mice (Nu/Nu) of 6-8 weeks of age and weighing 20-26 g. Ten days after the implantation of the tumor cells, the mice were randomly split into two groups: one of them received a daily injection of potassium 2,5-diacetoxybenzene sulfonate (DABS) by intraperitoneal route at a dose of 100 mg/kg dissolved in saline (0.9% NaCl) whereas the other group received a daily injection of carrier (saline). The treatments were administered for 15 days. The volumes of the tumors induced by the implantation of PC-3 cells were measured through the skin on alternating days using a Vernier caliper. The volume was calculated using the formula V=(D×2d)/2, where D is the larger diameter in mm, d is the smaller diameter in mm and V is the volume in mm3. At the end of treatment, the mice were sacrificed and the tumors were weighed.
# [6] = target: T1, Fibroblast Growth Factor-1 (FGF-1); assay: FGF-1-induced mitogenesis in quiescent Balb/c 3T3 fibroblast cultures; format: cell-based; details: quiescent Balb/c 3T3 fibroblasts
# Protocol: The evaluated compounds were used in the form of potassium salt, except in the first case which used calcium salt. The experiments were carried out as described in Fernandez-Tornero C et al. J Biol Chem, 2003.
smiles,measurement,setting,value
"O=C(O)C=Cc1cc(O)ccc1O [2,5-DHC, 3-(2,5-dihydroxyphenyl)-2-propenoic acid]",C6 cell proliferation,rat glioma C6 cells; 50 μM,reduced the C6 cell proliferation to less than half
same,C6 cell proliferation,rat glioma C6 cells; 100 μM,proliferation was reduced to one tenth
"O=C([O-])c1cc(O)ccc1O.[K+] [2,5-dihydroxybenzoate, potassium 2,5-dihydroxybenzoate]",bFGF-induced fibrosis (fibroblasts in septa of connective tissue of adipose tissue),bFGF-induced fibrosis,reduces bFGF-induced fibrosis
same,rat glioma C6 cell proliferation (absorbance at 595 nm),"rat glioma C6 cells; 100, 200, 500 or 1000 μM","inhibited rat glioma C6 cell proliferation in a concentration-dependent manner, an effect which was statistically significant at the concentrations of 500 and 1000 μM"
"CC(=O)Oc1ccc(O)cc1S(=O)(=O)[O-].[K+] [2A-5HBS, potassium 2-acetoxy-5-hydroxybenzene sulfonate]",structural interaction with FGF-1 (binding site in co-crystal),[1],"occupy a site that is very close to the one that has been described occupied by 2,5-dihydroxybenzene sulfonic acid"
"CC(=O)Oc1ccc(O)c(S(=O)(=O)[O-])c1.[K+] [5A-2HBS, potassium 5-acetoxy-2-hydroxybenzene sulfonate]",structural interaction with FGF-1 (binding site in co-crystal),[1],"occupy a site that is very close to the one that has been described occupied by 2,5-dihydroxybenzene sulfonic acid"
"CC(=O)Oc1ccc(OC(C)=O)c(S(=O)(=O)[O-])c1.[K+] [DABS, potassium 2,5-diacetoxybenzene sulfonate]",tumor cell apoptosis in subcutaneous glioma sections (hematoxylin and eosin),"[2]; 100 mg/kg/day i.p., 10 days",a large number of tumor cells in apoptosis can be observed
same,probability of being tumor-free (χ2 test),"[2]; DABS group vs DHBS group, 100 mg/kg/day",greater probability of being tumor-free
same,average size (volume) of the subcutaneous gliomas,"[2]; i.p. 100 mg/kg/day, 10 days",this average volume was even less
same,rats tumor-free when treatment ended,"[2]; i.p. 100 mg/kg/day, 10 days, all rats had established tumors prior to treatment",4 rats
same,structural interaction with FGF-1 (binding site in co-crystal),[1],"occupy a site that is very close to the one that has been described occupied by 2,5-dihydroxybenzene sulfonic acid"
same,PC-3 cell proliferation (percentage of control),[3],caused a significant inhibition
same,A549 cell proliferation (percentage of control),[4],caused a significant inhibition
same,tumor growth (tumor volume),[5],significantly reduced the human prostate cell tumor growth
same,weight of the extracted tumor when treatment ended,[5],significant reduction of the weight of the extracted tumor
"O=S(=O)([O-])c1cc(O)ccc1O.[K+] [DHBS, potassium 2,5-dihydroxybenzene sulfonate, reference compound]",average size (volume) of the subcutaneous gliomas,"[2]; i.p. 100 mg/kg/day, 10 days",less than that of the rats treated with carrier
same,inhibition of mitogenesis induced by FGF-1,[6],inhibition of the mitogenesis induced by fibroblast growth factor 1
